Measurements as given in the supplement of paper PMC11368000.

Legend:
Details in all cases: exposure time: 90 min
1118 [1] = donor line of iPSC-derived cardiomyocytes; test: POD (EC05) for decrease in beat frequency (negative chronotrope) vs vehicle; higher = less potent (higher point of departure)
How it was run: (§1)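 Points of departure specific to each donor were obtained from hierarchical Bayesian Hill fits to vehicle-normalised beat frequency, decay-to-rise ratio or peak frequency. Thresholds were set at 5% change, or 95% loss in the case of peak frequency. The cells were human iPSC-derived cardiomyocytes from 16 donors, exposed for 90 min at 37 °C to 0.1, 1, 10 and 100 µM (final, 0.5% DMSO), with Ca2+ flux read on a FLIPR Tetra before and after exposure.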

1083 = donor line of iPSC-derived cardiomyocytes; test: POD (EC05) for increase in beat frequency (positive chronotrope) vs vehicle; higher = less potent (higher point of departure)
Experimental: (§2)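 Human iPSC-derived cardiomyocytes from 16 donors were exposed for 90 min at 37 °C to each PFAS at 0.1, 1, 10 and 100 µM in 0.5% DMSO, 384-well plates. Kinetic Ca2+ flux (FLIPR) and Hoechst nuclei counts were normalised to vehicle wells and fitted with a hierarchical Bayesian Hill model to give donor-specific PODs: EC05 for beat-rate increase or decrease and for decay-to-rise ratio increase (QT proxy), EC95 for peak-frequency loss (asystole), EC10 for total cell number loss. 0.03 µM is the lower bound.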

1118 [2] = test: as above
Experimental: as §2

11235 = donor line of iPSC-derived cardiomyocytes; test: as above
Experimental: as §2

1309 = donor line of iPSC-derived cardiomyocytes; test: as above
Experimental: as §2

1368 = donor line of iPSC-derived cardiomyocytes; test: as above
Experimental: as §2

1392 = donor line of iPSC-derived cardiomyocytes; test: as above
Experimental: as §2

1434 = donor line of iPSC-derived cardiomyocytes; test: as above
Experimental: as §2

1516 [3] = donor line of iPSC-derived cardiomyocytes; test: as above
Experimental: as §2

1518 [4] = donor line of iPSC-derived cardiomyocytes; test: as above
Experimental: as §2

1531 [5] = donor line of iPSC-derived cardiomyocytes; test: as above
Experimental: as §2

1535 = donor line of iPSC-derived cardiomyocytes; test: as above
Experimental: as §2

1565 = donor line of iPSC-derived cardiomyocytes; test: as above
Experimental: as §2

20032 = donor line of iPSC-derived cardiomyocytes; test: as above
Experimental: as §2

20084 = donor line of iPSC-derived cardiomyocytes; test: as above
Experimental: as §2

30145 = donor line of iPSC-derived cardiomyocytes; test: as above
Experimental: as §2

30171 = donor line of iPSC-derived cardiomyocytes; test: as above
Experimental: as §2

1516 [6] = test: POD (EC05) for increase in Ca2+ transient decay-to-rise ratio (QT prolongation) vs vehicle; higher = less potent (higher point of departure)
How it was run: as §1

1518 [7] = test: as above
How it was run: as §1

1531 [8] = test: as above
How it was run: as §1

Compound | POD vs vehicle 1118 [1] [µM] | POD vs vehicle 1083 [µM] | POD vs vehicle 1118 [2] [µM] | POD vs vehicle 11235 [µM] | POD vs vehicle 1309 [µM] | POD vs vehicle 1368 [µM] | POD vs vehicle 1392 [µM] | POD vs vehicle 1434 [µM] | POD vs vehicle 1516 [3] [µM] | POD vs vehicle 1518 [4] [µM] | POD vs vehicle 1531 [5] [µM] | POD vs vehicle 1535 [µM] | POD vs vehicle 1565 [µM] | POD vs vehicle 20032 [µM] | POD vs vehicle 20084 [µM] | POD vs vehicle 30145 [µM] | POD vs vehicle 30171 [µM] | POD vs vehicle 1516 [6] [µM] | POD vs vehicle 1518 [7] [µM] | POD vs vehicle 1531 [8] [µM]
NS(=O)(=O)C(F)(F)C(F)(F)C(F)(F)C(F)(F)C(F)(F)C(F)(F)F [Perfluorohexanesulfonamide] | 1.33 | > 100 | > 100 | > 100 | > 100 | > 100 | > 100 | > 100 | > 100 | > 100 | > 100 | > 100 | > 100 | > 100 | > 100 | > 100 | > 100 | > 100 | > 100 | > 100
O=C(O)C(F)(F)C(F)(F)C(F)(F)C(F)(F)C(F)(F)C(F)(F)C(F)(F)C(F)(F)C(F)(F)F [Perfluorodecanoic_acid] | 2.31 | > 100 | > 100 | > 100 | > 100 | > 100 | > 100 | > 100 | > 100 | > 100 | > 100 | > 100 | > 100 | > 100 | > 100 | > 100 | > 100 | > 100 | > 100 | > 100
O=S(=O)(O)C(F)(F)C(F)(F)C(F)(F)C(F)(F)F [Perfluorobutanesulfonic_acid] | > 100 | – | > 100 | > 100 | > 100 | > 100 | > 100 | > 100 | > 100 | > 100 | > 100 | > 100 | > 100 | > 100 | > 100 | – | > 100 | 39.7 | > 100 | > 100
O=C(O)C(F)(F)C(F)(F)C(F)(F)C(F)(F)C(F)(F)C(F)(F)C(F)(F)C(F)(F)Cl [9-Chloro-perfluorononanoic_acid] | 13.1 | > 100 | > 100 | > 100 | > 100 | > 100 | > 100 | > 100 | > 100 | > 100 | > 100 | > 100 | > 100 | > 100 | > 100 | > 100 | > 100 | > 100 | > 100 | > 100
O=S(=O)(O)C(F)(F)C(F)(F)C(F)(F)C(F)(F)C(F)(F)C(F)(F)F [Perfluorohexanesulfonic_acid] | 19.6 | > 100 | > 100 | > 100 | > 100 | > 100 | > 100 | > 100 | > 100 | > 100 | > 100 | > 100 | > 100 | > 100 | > 100 | > 100 | > 100 | > 100 | > 100 | > 100
CC(O)C(F)(F)C(F)(F)F (centres undefined) [1-Pentafluoroethylethanol] | > 100 | > 100 | > 100 | > 100 | > 100 | > 100 | > 100 | > 100 | > 100 | > 100 | > 100 | > 100 | > 100 | > 100 | > 100 | > 100 | > 100 | > 100 | > 100 | > 100
O=C(O)C(F)(F)C(F)(F)C(F)(F)C(F)(F)F [Perfluoropentanoic_acid] | > 100 | > 100 | > 100 | > 100 | > 100 | > 100 | > 100 | > 100 | > 100 | > 100 | > 100 | > 100 | > 100 | > 100 | > 100 | > 100 | > 100 | > 100 | > 100 | > 100
NC(=O)C(F)(F)C(F)(F)C(F)(F)C(F)(F)C(N)=O [Octafluoroadipamide] | > 100 | > 100 | > 100 | > 100 | > 100 | > 100 | > 100 | > 100 | > 100 | > 100 | > 100 | > 100 | > 100 | > 100 | > 100 | > 100 | > 100 | > 100 | > 100 | > 100
COC(=O)C(F)(F)C(F)(F)OC(F)(C(F)(F)F)C(F)(F)OC(F)=C(F)F (centres undefined) [Methyl_perfluoro(3-(1-ethenyloxypropan-2-yloxy)propanoate)] | > 100 | > 100 | > 100 | > 100 | > 100 | > 100 | > 100 | > 100 | > 100 | > 100 | > 100 | > 100 | > 100 | > 100 | > 100 | > 100 | > 100 | > 100 | > 100 | 24.9
O=C(O)CCC(F)(F)C(F)(F)C(F)(F)F [3:3 Fluorotelomer carboxylic acid] | > 100 | > 100 | > 100 | > 100 | > 100 | > 100 | > 100 | > 100 | > 100 | > 100 | > 100 | > 100 | > 100 | > 100 | > 100 | > 100 | > 100 | – | – | > 100
O=C(O)CCC(F)(F)C(F)(F)C(F)(F)C(F)(F)C(F)(F)C(F)(F)C(F)(F)F [3-Perfluoroheptylpropanoic_acid] | 13.8 | > 100 | > 100 | > 100 | > 100 | > 100 | > 100 | > 100 | > 100 | > 100 | > 100 | > 100 | > 100 | > 100 | > 100 | > 100 | > 100 | > 100 | > 100 | 25.4
O=C(O)C(F)(F)C(F)(F)C(F)(F)C(F)(F)C(F)(F)C(F)(F)C(F)(F)F [Perfluorooctanoic_acid] | 7.02 | > 100 | > 100 | > 100 | > 100 | > 100 | > 100 | > 100 | > 100 | > 100 | > 100 | > 100 | > 100 | > 100 | > 100 | > 100 | > 100 | > 100 | > 100 | > 100
O=C(O)C=C(C(F)(F)F)C(F)(F)F [3,3-Bis(trifluoromethyl)-2-propenoic_acid] | > 100 | > 100 | > 100 | > 100 | > 100 | > 100 | > 100 | > 100 | > 100 | > 100 | > 100 | > 100 | > 100 | > 100 | > 100 | > 100 | > 100 | > 100 | > 100 | > 100
O=S(=O)(O)CCC(F)(F)C(F)(F)C(F)(F)C(F)(F)C(F)(F)C(F)(F)C(F)(F)C(F)(F)F [8:2 Fluorotelomer sulfonic acid] | > 100 | 27.8 | > 100 | > 100 | > 100 | 77.4 | > 100 | > 100 | > 100 | > 100 | > 100 | > 100 | > 100 | > 100 | > 100 | > 100 | > 100 | 38 | > 100 | 47.4
O=C(O)C(F)(F)C(F)(F)C(F)(F)C(F)(F)C(F)(F)C(F)(F)C(F)(F)C(F)(F)C(F)(F)C(F)(F)F [Perfluoroundecanoic_acid] | > 100 | > 100 | > 100 | > 100 | > 100 | > 100 | > 100 | > 100 | > 100 | > 100 | > 100 | > 100 | > 100 | > 100 | > 100 | > 100 | > 100 | > 100 | 17.4 | > 100
OCC(O)CC(F)(F)C(F)(F)C(F)(F)C(F)(F)C(F)(F)C(F)(F)C(F)(F)C(F)(F)F (centres undefined) [1-(Perfluorofluorooctyl)propane-2,3-diol] | 0.258 | > 100 | 3.1 | 0.231 | 0.394 | > 100 | > 100 | 0.19 | 0.516 | > 100 | > 100 | > 100 | > 100 | > 100 | > 100 | > 100 | 0.136 | > 100 | > 100 | > 100
O=S(=O)(O)CCC(F)(F)C(F)(F)C(F)(F)C(F)(F)F [4:2 Fluorotelomer sulfonic acid] | > 100 | > 100 | > 100 | > 100 | > 100 | > 100 | > 100 | > 100 | > 100 | > 100 | > 100 | > 100 | > 100 | > 100 | > 100 | – | > 100 | > 100 | > 100 | > 100
NC(=O)C(F)(F)C(F)(F)C(F)(F)C(F)F | > 100 | > 100 | > 100 | > 100 | > 100 | > 100 | > 100 | > 100 | > 100 | > 100 | > 100 | > 100 | > 100 | > 100 | > 100 | – | > 100 | – | 0.19 | 2.04
CN(CCO)S(=O)(=O)C(F)(F)C(F)(F)C(F)(F)C(F)(F)C(F)(F)C(F)(F)C(F)(F)C(F)(F)F [N-Methyl-N-(2-hydroxyethyl)perfluorooctanesulfonamide] | – | > 100 | > 100 | – | > 100 | > 100 | > 100 | – | – | > 100 | > 100 | > 100 | > 100 | 0.199 | > 100 | > 100 | > 100 | > 100 | > 100 | > 100
